Columns and labels:
Balb/c mice [1] = test: Survival rate of mice singly administered with high doses of carrier; type: in vivo; conditions: pDBA, single
Method: The survival rate of mice was investigated in the manner described below when high doses of pDBA solution were directly administered to the mice.
pDBA was dissolved in physiological saline solution to prepare pDBA solutions having different concentrations. The pDBA solutions were administered to Balb/c mice intravenously through tail veins, and their symptoms were observed. pDBAs obtained in Synthetic Examples 1-7 (all listed in Table 2) were used. […]

HepG2 cells [2] = test: Introduction of FITC-labeled oligonucleotide into HepG2 cells using pDBA, flow cytometer; type: cell-based; conditions: HepG2, 4 hours, FIG. 11 and 12
Method: An oligonucleotide labeled with FITC (20 mer, Pharmacia Corporation) was used to assess the efficiency of introduction into cells for the. complexes of the oligonucleotide with various pDBAs.
HepG2 cells were inoculated onto a 12-well petri dish at 1×10^5 cells/well and cultured for 24 hours. The FITC-labeled oligonucleotide was used, and pDBAs obtained in Synthetic Examples 3 and 5 were used as the nucleic acid carriers. Complexes were prepared from these three kinds (pDBAs and the FITC-labeled oligonucleotide) such that the ratios of oligonucleotide/pDBA were 1/1, 1/5, and 1/10 (w/w). The complex solutions were added to the HepG2 cells; and after culturing for 4 hours, the cells were washed with PBS(−) twice. After removal of PBS(−), the cells were separated from the dish using a cell dissociation solution (SIGMA-Aldrich Corporation) and the cell suspensions were subjected to measurement with a flow cytometer (FACS Calibur available from Becton Dickinson). The results are shown in FIG. 11 (oligonucleotide/pDBA=1/5(w/w)), where M1 represents the results from control experiment and M2 represents the results from the experiment using the FITC-labeled oligonucleotide).

[3] = system: guinea pigs (Hartley line); conditions: guinea pig, in vivo
Balb/c mice [4] = test: Gene introduction into mice with plasmid A/pDBA complexes given intravenously through tail veins, luciferase activity in tissues; type: in vivo; conditions: for luciferase activity in the liver: plasmid/pDBA 1/7 (w/w)
Method: A solution of plasmid A and a solution of pDBA were prepared, respectively, at twice the desired concentration. Approximately 30 minutes prior to administration, the pDBA solution was added dropwise to the plasmid solution with stirring to prepare a plasmid/(nucleic acid carrier) complex solution. DMEM medium was used as solvent. Specifically, a 50 μg/ml plasmid solution was prepared such that a plasmid/(nucleic acid carrier) complex solution having a plasmid concentration of 25.0 μg/ml would be used as an administration sample.
Complex solutions were prepared from pDBA obtained in Example 3 and plasmid A such that the weight ratio of plasmid/pDBA was 1/7 (w/w) and were administered to Balb/c mice intravenously through tail veins. The dose of plasmid A per mouse was 12.5 μg/0.5 ml. Two days and twenty one days after administration the luciferase activity was measured in the lung, the liver and the spleen whereby gene introduction to the respective were determined.
Complex solutions were prepared from pDBA obtained in Synthetic Example 3 and plasmid A such that different weight ratios of plasmid to pDBA (plasmid/pDBA=1/0, 1/1, 1/5, 1/10, and 1/20) were realized; and they were administered to Balb/c mice intravenously through tail veins.
Two days after administration the luciferase activity found in the liver was measured whereby gene introduction to the respective mouse tissues were determined.
Complexes were prepared from five kinds of pDBA obtained in Synthetic Examples 1, 2, 3, 4, and 5 (all listed in Table 2) and plasmid A such that the weight ratio of plasmid/pDBA was 1/5 (w/w); and they were administered to mice intravenously through tail veins. Two days after administration the luciferase activity in the liver was measured.
Similarly to Example 4, Plasmid A/pDBA complex solutions that were prepared were administered to Balb/C mice (8-week old male) intravenously through tail veins. Gene expression in the liver after administration was assessed by measuring the luciferase activity. pDBA obtained in Synthetic Example 3 in Table 2 was used to prepare a complex solution such that plasmid/pDBA was equal to 1/5 (w/W), which was used in the administration described above.

HepG2 cells [5] = test: Gene introduction into HepG2 cells with plasmid A/pDBA complexes, activity of the expressed luciferase; type: cell-based; conditions: plasmid/pDBA weight ratios 1/1 to 1/20 (w/w), FIG. 3
Method: A solution of a plasmid encoding the luciferase gene (about 5.25 kb: PicaGene control vector into which the luciferase gene was previously introduced (Toyo Ink Mfg. Co. Ltd.) that will be referred to as “plasmid A” hereinafter) and a solution of a nucleic acid carrier were prepared, respectively, at twice the desired concentration. Approximately 30 minutes prior to administration, the nucleic acid carrier solution was added dropwise to the plasmid solution with stirring to prepare a plasmid/(nucleic acid carrier) complex solution. DMEM medium (Sigma-Aldrich Corporation) was used as solvent. Specifically, a 25 μg/ml plasmid solution was prepared such that a plasmid/(nucleic acid carrier) complex solution having a plasmid concentration of 12.5 μg/ml would be used as an administration sample.
HepG2 cells were inoculated onto a 12-well multi-well plate (Coaster Inc.) at 1×10^5 cells/well one day prior to testing. […] The luciferase activity of the supernatant was measured on a Luciferase Assay System (Toyo Inc. Mfg. Co. Ltd.) using a luminometer (Lumit LB9501 available from Berthold Pty Ltd.). The protein concentration of the centrifuged supernatant was measured in a Protein Assay Kit (Bio-Rad Laboratories, Inc.) using a microplate reader (Rainbow Thermo available from Tecan U.S., Inc.). […]

Poly(DL-2,4-diaminobutyric acid) Acetate [Synthetic Example 1]
Survival rate (survival number/case number) (Balb/c mice [1]; dose 1.6 mg/kg iv): 3/3 | Survival rate (survival number/case number) (Balb/c mice [1]; dose 3.1 mg/kg iv, listed as 12, 3.1 mg/kg): 3/3 | Survival rate (survival number/case number) (Balb/c mice [1]; dose 6.3 mg/kg iv, listed as 12, 6.3 mg/kg): 3/3 | Survival rate (survival number/case number) (Balb/c mice [1]; dose 12.5 mg/kg iv): 0/3 | cellular introduction / incorporation of the FITC-labeled oligonucleotide (HepG2 cells [2]): little incorporation of oligonucleotide

Poly(DL-2,4-diaminobutyric acid) Acetate [Synthetic Example 2]
Survival rate (survival number/case number) (Balb/c mice [1]; dose 3.1 mg/kg iv, listed as 26, 3.1 mg/kg): 3/3 | Survival rate (survival number/case number) (Balb/c mice [1]; dose 6.3 mg/kg iv, listed as 26, 6.3 mg/kg): 3/3

Poly(DL-2,4-diaminobutyric acid) Acetate [Synthetic Example 3]
Survival rate (survival number/case number) (Balb/c mice [1]; dose 3.1 mg/kg iv, listed as 49, 3.1 mg/kg): 3/3 | Survival rate (survival number/case number) (Balb/c mice [1]; dose 6.3 mg/kg iv, listed as 49, 6.3 mg/kg): 3/3 | immunogenicity [3]: very low | luciferase activity in the liver (Balb/c mice [4]; 21 days after iv administration, FIG. 5B): maintained even 21 days after administration | duration of gene expression in the liver after a single administration (Balb/c mice [4]; Balb/C mice, iv tail vein, plasmid A, plasmid/pDBA 1/5 (w/W), FIG. 8): ≥ 7 months | gene expression (luciferase activity in the liver) (Balb/c mice [4]; two days after iv administration, plasmid/pDBA 1/0, 1/1, 1/5, 1/10, 1/20, FIG. 6): As the quantity of pDBA relative to the plasmid increases, the gene expression has the tendency to increase | luciferase activity in the liver (Balb/c mice [4]; two days after iv administration, compared with plasmid only, FIG. 5A): markedly high luciferase activity | gene expression (activity of the expressed luciferase) (HepG2 cells [5]): as the quantity of pDBA relative to plasmid increases, so does the gene expression

Poly(DL-2,4-diaminobutyric acid) Acetate [Synthetic Example 4]
Survival rate (survival number/case number) (Balb/c mice [1]; dose 3.1 mg/kg iv, listed as 62, 3.1 mg/kg): 3/3 | Survival rate (survival number/case number) (Balb/c mice [1]; dose 6.3 mg/kg iv, listed as 62, 6.3 mg/kg): 2/3

Poly(DL-2,4-diaminobutyric acid) Acetate [Synthetic Example 5]
Survival rate (survival number/case number) (Balb/c mice [1]; dose 3.1 mg/kg iv, listed as 170, 3.1 mg/kg): 3/3 | Survival rate (survival number/case number) (Balb/c mice [1]; dose 6.3 mg/kg iv, listed as 170, 6.3 mg/kg): 0/3

Poly(DL-2,4-diaminobutyric acid) Acetate [Synthetic Example 6]
Survival rate (survival number/case number) (Balb/c mice [1]; dose 3.1 mg/kg iv, listed as 278, 3.1 mg/kg): 3/3 | Survival rate (survival number/case number) (Balb/c mice [1]; dose 6.3 mg/kg iv, listed as 278, 6.3 mg/kg): 0/3

Poly(DL-2,4-diaminobutyric acid) Acetate [Synthetic Example 7]
Survival rate (survival number/case number) (Balb/c mice [1]; dose 3.1 mg/kg iv, listed as 348, 3.1 mg/kg): 1/3 | Survival rate (survival number/case number) (Balb/c mice [1]; dose 6.3 mg/kg iv, listed as 348, 6.3 mg/kg): 0/3
